Measured values from ChEMBL document CHEMBL1124752, “Cyclobut-A and cyclobut-G: broad-spectrum antiviral agents with potential utility for the therapy of AIDS” (J Med Chem, 1990).
Values after ≈ are worked out from the molar mass of the structure shown.

Experiments:
[1] = system: Murid betaherpesvirus 1; assay: Number of survivors per number of systemic MCMV infected mice treated with 33.4 mg/kg/day; 14/15; assay type: functional
[2] = system: Human alphaherpesvirus 1; assay: Number of survivors per number of HSV-1 infected mice treated with 18.7 mg/kg/day; 10/10; assay type: functional
[3] = system: Human alphaherpesvirus 2; assay: In vitro antiviral activity tested against herpesvirus, HSV-2, HEET strain by plaque reduction assay in human foreskin fibroblasts; assay type: functional
[4] = system: Human alphaherpesvirus 1; assay: Tested for mean day to death of nonsurvivors against HSV-1 infection in mice at 4.7 mg/kg/day; assay type: functional
[5] = system: Human immunodeficiency virus 1; assay: Tested for the determination of percentage protection at 50 uM against HIV-1 in ATH8 cells; assay type: functional, ATH-8
[6] = system: Human betaherpesvirus 5; assay: In vitro antiviral activity tested against herpesvirus, HCMV, CH strain by plaque reduction assay in human foreskin fibroblasts; assay type: functional
[7] = system: Murid betaherpesvirus 1; assay: Number of survivors per number of systemic MCMV infected mice treated with 100 mg/kg/day; 15/15; assay type: functional
[8] = system: Human alphaherpesvirus 3; assay: In vitro antiviral activity tested against herpesvirus, VZV, OKA strain by plaque reduction assay in human foreskin fibroblasts; assay type: functional
[9] = system: Human immunodeficiency virus 1; assay: Tested for the determination of percentage toxicity at 50 uM against HIV-1 in ATH8 cells; assay type: organism-based; conditions: human immunodeficiency virus 1, ath-8, 50 µM
[10] = system: Human immunodeficiency virus 1; assay: Tested for the determination of percentage toxicity at 10 uM against HIV-1 in ATH8 cells; assay type: organism-based; conditions: human immunodeficiency virus 1, ath-8, 10 µM
[11] = system: Human alphaherpesvirus 1; assay: Number of survivors per number of HSV-1 infected mice treated with 75 mg/kg/day; 10/10; assay type: functional
[12] = system: Human alphaherpesvirus 2; assay: Tested for mean day to death of nonsurvivors against HSV-2 encephalitis in mice at 31.2 mg/kg/day; assay type: functional
[13] = system: Human alphaherpesvirus 1; assay: Number of survivors per number of HSV-1 infected mice treated with 4.7 mg/kg/day; 6/10; assay type: functional
[14] = system: Human alphaherpesvirus 1; assay: In vitro antiviral activity against herpesvirus, HSV-1, E-377 strain by plaque reduction assay in human foreskin fibroblasts; assay type: functional
[15] = system: Human betaherpesvirus 5; assay: In vitro antiviral activity tested against herpesvirus, HCMV, AD169 strain by plaque reduction assay in human foreskin fibroblasts; assay type: functional
[16] = system: Human alphaherpesvirus 2; assay: Tested for the effective dose required to inhibit HSV-2 encephalitis in infected mice; assay type: functional
[17] = system: Murid betaherpesvirus 1; assay: Tested for the effective dose required to inhibit systemic MCMV in infected mice; assay type: functional
[18] = system: Murid betaherpesvirus 1; assay: Number of survivors per number of systemic MCMV infected mice treated with 11.2 mg/kg/day; 14/15; assay type: functional
[19] = system: Human immunodeficiency virus 1; assay: Tested for the determination of percentage toxicity at 1 uM against HIV-1 in ATH8 cells; assay type: organism-based; conditions: human immunodeficiency virus 1, ath-8, 1 µM
[20] = system: Human immunodeficiency virus 1; assay: Tested for the determination of percentage protection at 10 uM against HIV-1 in ATH8 cells; assay type: functional, ATH-8
[21] = system: Human immunodeficiency virus 1; assay: Tested for the determination of percentage protection at 100 uM against HIV-1 in ATH8 cells; assay type: functional, ATH-8
[22] = system: Human alphaherpesvirus 2; assay: Number of survivors per number of HSV-2 infected mice treated with 125 mg/kg/day; 10/10; assay type: functional
[23] = system: Human alphaherpesvirus 2; assay: Tested for mean day to death of nonsurvivors against HSV-2 encephalitis in mice at 7.8 mg/kg/day; assay type: functional
[24] = system: Murid betaherpesvirus 1; assay: Tested for mean day to death of nonsurvivors against systemic MCMV infection in mice at 33.4 mg/kg/day; assay type: functional
[25] = system: Human immunodeficiency virus 1; assay: Tested for the determination of percentage protection at 1 uM against HIV-1 in ATH8 cells; assay type: functional, ATH-8
[26] = system: Human alphaherpesvirus 3; assay: In vitro antiviral activity tested against herpesvirus, VZV, Ellen strain by plaque reduction assay in human foreskin fibroblasts; assay type: functional
[27] = system: Human betaherpesvirus 5; assay: In vitro antiviral activity tested against herpesvirus, HCMV, Davis strain by plaque reduction assay in human foreskin fibroblasts; assay type: functional
[28] = system: Human betaherpesvirus 5; assay: In vitro antiviral activity tested against herpesvirus, HCMV, LA strain by plaque reduction assay in human foreskin fibroblasts; assay type: functional
[29] = system: Human alphaherpesvirus 2; assay: In vitro antiviral activity tested against herpesvirus, HSV-2, X-79 strain by plaque reduction assay in human foreskin fibroblasts; assay type: functional
[30] = system: Human immunodeficiency virus 1; assay: Tested for the determination of percentage toxicity at 100 uM against HIV-1 in ATH8 cells; assay type: organism-based; conditions: human immunodeficiency virus 1, ath-8, 100 µM
[31] = system: Human alphaherpesvirus 2; assay: Number of survivors per number of HSV-2 infected mice treated with 7.8 mg/kg/day; 5/10; assay type: functional
[32] = system: Murid betaherpesvirus 1; assay: Tested for mean day to death of nonsurvivors against systemic MCMV infection in mice at 3.8 mg/kg/day; assay type: functional
[33] = system: Human betaherpesvirus 5; assay: In vitro antiviral activity tested against herpesvirus, HCMV, EC strain by plaque reduction assay in human foreskin fibroblasts; assay type: functional
[34] = system: Human alphaherpesvirus 1; assay: Tested for the effective dose required to inhibit HSV-1 in infected mice; assay type: functional
[35] = system: Human alphaherpesvirus 2; assay: In vitro antiviral activity tested against herpesvirus, HSV-2, JEN strain by plaque reduction assay in human foreskin fibroblasts; assay type: functional
[36] = system: Human alphaherpesvirus 2; assay: Number of survivors per number of HSV-2 infected mice treated with 31.2 mg/kg/day; 9/10; assay type: functional
[37] = system: Murid betaherpesvirus 1; assay: In vitro antiviral activity tested against herpesvirus, MCMV, Smith strain by plaque reduction assay in mouse embryo fibroblasts; assay type: functional
[38] = system: Human alphaherpesvirus 2; assay: In vitro activity tested against herpesvirus, HSV-2, MS strain by plaque reduction assay in human foreskin fibroblasts; assay type: functional
[39] = species on record: Homo sapiens; assay: The drug concentration was determined to reduce proliferation of human foreskin fibroblasts to 50% of untreated controls in proliferation assay; assay type: functional; conditions: read-out: ID50 (the source's name)
[40] = system: Murid betaherpesvirus 1; assay: Tested for mean day to death of nonsurvivors against systemic MCMV infection in mice at 11.2 mg/kg/day; assay type: functional
[41] = system: Murid betaherpesvirus 1; assay: Number of survivors per number of systemic MCMV infected mice treated with 3.8 mg/kg/day; 4/15; assay type: functional
[42] = read-out: ED50 (the source's name)
[43] = read-out: ID50 (the source's name)

Nc1ncnc2c1ncn2[C@@H]1C[C@H](CO)[C@H]1CO
Survivors / treated [1]: 14 | Survivors / treated [2]: 10 | EC50 [3, 42]: 2.2 µg/mL (≈ 8.83 µM) | IC50 [3, 43]: > 100 µg/mL | MDD [4]: 7.5 | Protection [5]: 48% | EC50 [6, 42]: 0.9 µg/mL (≈ 3.61 µM) | IC50 [6, 43]: > 100 µg/mL | Survivors / treated [7]: 15 | EC50 [8, 42]: 2 µg/mL (≈ 8.02 µM) | IC50 [8, 43]: > 100 µg/mL | Cytotoxity [9]: 42% | Cytotoxity [10]: 32% | Survivors / treated [11]: 10 | MDD [12]: 10 | Survivors / treated [13]: 6 | EC50 [14, 42]: 1 µg/mL (≈ 4.01 µM) | IC50 [14, 43]: > 100 µg/mL | EC50 [15, 42]: 3.7 µg/mL (≈ 14.8 µM) | IC50 [15, 43]: > 100 µg/mL | ED50 [16]: 9.7 mg/kg/day | ED50 [17]: 2.7 mg/kg/day | Survivors / treated [18]: 14 | Cytotoxity [19]: 11% | Protection [20]: 63% | Protection [21]: 52% | Survivors / treated [22]: 10 | MDD [23]: 10.8 | MDD [24]: 5 | Protection [25]: 47% | EC50 [26, 42]: 2.1 µg/mL (≈ 8.42 µM) | IC50 [26, 43]: > 100 µg/mL | EC50 [27, 42]: 0.9 µg/mL (≈ 3.61 µM) | IC50 [27, 43]: > 100 µg/mL | EC50 [28, 42]: 1 µg/mL (≈ 4.01 µM) | IC50 [28, 43]: > 100 µg/mL | EC50 [29, 42]: 1.8 µg/mL (≈ 7.22 µM) | IC50 [29, 43]: > 100 µg/mL | Cytotoxity [30]: 44% | Survivors / treated [31]: 5 | MDD [32]: 5.3 | EC50 [33, 42]: 2.2 µg/mL (≈ 8.83 µM) | IC50 [33, 43]: > 100 µg/mL | ED50 [34]: < 4.7 mg/kg/day | EC50 [35, 42]: 2.3 µg/mL (≈ 9.23 µM) | IC50 [35, 43]: > 100 µg/mL | Survivors / treated [36]: 9 | EC50 [37, 42]: 0.05 µg/mL (≈ 0.201 µM) | IC50 [37, 43]: > 100 µg/mL | EC50 [38, 42]: 1.6 µg/mL (≈ 6.42 µM) | IC50 [38, 43]: > 100 µg/mL | IC50 [39]: 7.7 µg/mL (≈ 30.9 µM) | MDD [40]: 6 | Survivors / treated [41]: 4
